Experimental data reported in patent publication US10202349B2, “Asymmetric bis-acridines with antitumour activity and their uses” (POLITECHNIKA GDAŃSKA, priority 2015, dated 2019).

Columns and labels:
MCF-7 = experiment: Cytotoxic activity in vitro, SRB; assay type: cell-based, human
Procedure: (§1) Cytotoxic activity tests in-vitro. A measure of the cytotoxic activity of bis-acridines are the EC50 (concentration of studied compounds at which 50% inhibition of proliferation of tumorous is observed) of the evaluated compounds that inhibit the growth of 50% of cells in relation to a control. The cytotoxic activity of the compounds was determined using SRB, recommended by the US National Cancer Institute (USA). As the spectrum of 13 human origin neoplasms in bis-acridine screening studies, we used the following: HT 29 [CRC], HCT 116 [CRC], H 460 [lung cancer], MDA MB 231 [breast cancer], MCF-7 [breast cancer], UM UC3 [bladder cancer], PC 3 [prostate cancer], DU 145 [ prostate cancer], Panc-1 [pancreatic cancer], Mia Pa Ca 2 [pancreatic cancer], BXPC 3 [pancreatic cancer], AsPC1 [pancreatic cancer], Capan-2 [pancreatic cancer]. […] The DU-145 results were substantially a basis for selecting compounds and neoplasms for screening. The next neoplasms most sensitive to the cytotoxic activity of bis-acridines was the CRC HCT-116, as well as breast cancer MBA-MB-231. […] The cytotoxic activity of the remaining bis-acridines is significant or high (EC50 in the range from 1 to 0.04 μM). […] Panc-1, MiaPaCa-2 and Capan-2 are more sensitive, whereas for AsPC-1 and BxPC-3 this activity is at least an order of magnitude smaller.

MiaPaCa-2 = experiment: Cytotoxic activity in vitro, SRB; assay type: cell-based, human
Procedure: as §1

MDA-MB-231 = experiment: Cytotoxic activity in vitro, SRB; assay type: cell-based, human
Procedure: as §1

DU-145 = experiment: Cytotoxic activity in vitro, SRB; assay type: cell-based, human
Procedure: as §1

AsPC-1 = experiment: Cytotoxic activity in vitro, SRB; assay type: cell-based, human
Procedure: as §1

Capan-2 = experiment: Cytotoxic activity in vitro, SRB; assay type: cell-based, human
Procedure: as §1

HCT-116 = experiment: Cytotoxic activity in vitro, SRB; assay type: cell-based, human
Procedure: as §1

PANC-1 = experiment: Cytotoxic activity in vitro, SRB; assay type: cell-based, human
Procedure: as §1

BxPC-3 = experiment: Cytotoxic activity in vitro, SRB; assay type: cell-based, human
Procedure: as §1

PANC 1 = experiment: Anti-neoplasmic activity against xenograft in hairless mice; assay type: in vivo
Procedure: (§2) For this, we selected 26 bis-acridines, mainly on the basis of the cytotoxic activity. We performed 34 series of experiments evaluating the anti-neoplasmic activity on xenografts in hairless mice against eleven neoplasms of human origin from the determination of the cytotoxic activity of bis-acridines (table 4). The tumours were injected subcutaneously to hairless mice of 5-weeks, female Crl:Nu-Foxnlnu, at a rate of 5×10^6 cells per mouse. After attaining a tumour of about 100 mm^3 or 200 mm^3 in depending on the neoplasm and its take this was 8 or even 30 days, and began therapy. On the day therapy was initiated, we randomised the animals and divided them into groups. Test groups were from 6 to 8 animals, and controls had from 8 to 14 animals. Each compound was tested at three differentiated doses.
(§3) The preparations were administered intravenously (i.v.) twice weekly for 4 weeks (thrice weekly for rapidly growing neoplasms). In several series, we used intraperitoneally (i.p.) administration in the same scheme. […] The therapeutic efficacy of the tested formulations was evaluated by measuring tumour size (length and width measurements of the tumour on the basis of the calculated tumour volume). Tumours were measured twice weekly for a period of about 30 days for fast-growing neoplasms, as well as about 60 days for the slow-growing neoplasms. The tumour volume in the treated groups compared with the control group. On this basis, inhibition of tumour growth was calculated using the following formula: Tumour growth inhibition TGI [%]=100−(ΔVT/ΔVC×100) Where ΔVT—is mean the tumour volume in animals in the group treated at the given day of treatment, minus the mean tumour volume in animals at the date of commencement of therapy. ΔVC is mean tumour volume in animals in the control group on a given day of treatment minus the average tumour volume of animals on the date of commencement of therapy. The results of the tests of anti-neoplasmic activity conducted in xenografts of human-origin neoplasms in mice are shown in Table 5.
(§4) The result above was accepted only in the case that the dose administered in all animals or more than half of the animals that survived to the end of the experiment. In addition, the evaluation was the day that the administration of the preparation was already completed: for the fast-growing neoplasms (eg. HCT116) this was in the days from 15 to 26, while for slow-growing neoplasms (eg. Panc 1) on a day from 34 to 60. […] In addition, the maximum inhibition of neoplasms could be identified in the day, in which there were no factors that could change the value TGI value.
(§5) Such factors may include: a significant decrease in body weight, the appearance of observable toxaemia, excessive rate of tumour growth: tumours in excess of 2000 mm^3 and all animals alive on that day.

PC-3 = experiment: Cytotoxic activity in vitro, SRB; assay type: cell-based, human
Procedure: as §1

UM-UC-3 = experiment: Cytotoxic activity in vitro, SRB; assay type: cell-based, human
Procedure: as §1

HCT 116 = experiment: Anti-neoplasmic activity against xenograft in hairless mice; assay type: in vivo
Procedure: as §2, §3, §4, §5

BXPC 3 = experiment: as above; assay type: in vivo
Procedure: as §2, §3, §4, §5

AsPC 1 = experiment: as above; assay type: in vivo; conditions: series 23, i.v., single 6 mg/kg, total 48 mg/kg, day 36, *at least half of animals did not survive
Procedure: as §2, §3, §4, §5

MDA MB 231 = experiment: as above; assay type: in vivo
Procedure: as §2, §3, §4, §5

HT-29 = experiment: Cytotoxic activity in vitro, SRB; assay type: cell-based, human
Procedure: as §1

H-460 = experiment: Cytotoxic activity in vitro, SRB; assay type: cell-based, human
Procedure: as §1

Mia Pa Ca 2 = experiment: Anti-neoplasmic activity against xenograft in hairless mice; assay type: in vivo; conditions: series 28, i.v., single 5 mg/kg, total 28 mg/kg, day 33
Procedure: as §2, §3, §4, §5

Row | SMILES | EC50 (MCF-7) | EC50 (MiaPaCa-2) | EC50 (MDA-MB-231) | EC50 (DU-145) | EC50 (AsPC-1) | EC50 (Capan-2) | EC50 (HCT-116) | EC50 (PANC-1) | EC50 (BxPC-3) | EC50 (UM-UC-3) | further results
1 | CN(CCCNc1c2ccccc2nc2cccc([N+](=O)[O-])c12)CCCNc1ccc2ncn3c4ccc(O)cc4c(=O)c1c23 [C-2042, 9-{N-[(8-hydroxyimidazo[4,5,1-de]-acridin-6-on-5-yl)aminopropyl]-N-methylaminopropylamino}-1′-nitroacridine] | 0.049 µM | 0.047 µM | 0.018 µM | 0.021 µM | 0.082 µM | 0.029 µM | 0.018 µM | 0.055 µM | 0.081 µM |  | TGI [%] [100 − (ΔVT/ΔVC × 100] (PANC 1; series 17, i.v., single 4 mg/kg, total 20 mg/kg, day 39, *at least half of animals did not survive): 33* %
2 | O=c1c2ccccc2[nH]c2c([N+](=O)[O-])ccc(NCCNCCNCCNc3c4ccccc4nc4cccc([N+](=O)[O-])c34)c12 [C-2033, 9-[N-(4-nitro-9(10H)acridono-1-yl)-aminoethylaminoethylamino-ethylamino]-1′-nitroacridine] | 0.072 µM | 0.048 µM | 0.032 µM | 0.01 µM |  |  | 0.019 µM | 0.038 µM |  | 0.015 µM | EC50 (PC-3): 0.032 µM; TGI [%] [100 − (ΔVT/ΔVC × 100] (HCT 116; series 8, i.p., single 3 mg/kg, total 21 mg/kg, day 23): 37%
3 | COc1ccc2c(c1)c(=O)c1c(NCCCN3CCN(CCCNc4c5ccccc5nc5cccc([N+](=O)[O-])c45)CC3)ccc3ncn2c31 [C-2049, 1-[3-(8-methoxy-imidazo[4,5,1-de]-acridin-6-on-5-yl)aminopropyl]-4-[3′-(1′-nitroacridin-1-yl)-aminopropyl]piperazine] |  | 0.036 µM | 0.038 µM | 0.021 µM | 0.122 µM | 0.027 µM | 0.028 µM | 0.04 µM | 0.075 µM |  | TGI [%] [100 − (ΔVT/ΔVC × 100] (BXPC 3; series 21, i.v., single 6 mg/kg, total 40 mg/kg, day 34): 63%; TGI [%] [100 − (ΔVT/ΔVC × 100] (PANC 1; series 20, i.v., single 6 mg/kg, total 48 mg/kg, day 32): 63%; TGI [%] [100 − (ΔVT/ΔVC × 100] (PANC 1; series 27, i.v, single 2 mg/kg, total 16 mg/kg, day 47): 80%; TGI [%] [100 − (ΔVT/ΔVC × 100] (AsPC 1): 32* %
4 | Cc1ccc([N+](=O)[O-])c2c(NCCCN(C)CCCNc3ccc4ncn5c6ccccc6c(=O)c3c45)c3ccccc3nc12 [C-2053, 9-{N-[(imidazo[4,5,1-de]-acridin-6-on-5-yl)aminopropyl]-N-methylaminopropylamino}-4′-methyl-1′-nitroacridine] |  | 0.087 µM |  | 0.065 µM | 0.176 µM |  | 0.065 µM | 0.098 µM | 0.224 µM |  | TGI [%] [100 − (ΔVT/ΔVC × 100] (BXPC 3; series 25, i.v., single 20 mg/kg, total 160 mg/kg, day 36): 84%; TGI [%] [100 − (ΔVT/ΔVC × 100] (BXPC 3; series 33, i.v., single 20 mg/kg, total 160 mg/kg, day 32, *at least half of animals did not survive): 47* %; TGI [%] [100 − (ΔVT/ΔVC × 100] (PANC 1; series 24, i.v., single 15 mg/kg, total 120 mg/kg, day 37): 64%; TGI [%] [100 − (ΔVT/ΔVC × 100] (PANC 1; series 26, i.v., single 20 mg/kg, total 160 mg/kg, day 56): 69%; TGI [%] [100 − (ΔVT/ΔVC × 100] (MDA MB 231; series 34, i.v., single 15 mg/kg, total 120 mg/kg, day 32): 62%
5 | O=c1c2ccccc2n2cnc3ccc(NCCNCCNCCNc4c5ccccc5nc5cccc([N+](=O)[O-])c45)c1c32 [C-2037] | 0.082 µM | 0.064 µM | 0.027 µM | 0.04 µM | 0.086 µM | 0.044 µM | 0.102 µM | 0.037 µM | 0.138 µM |  | TGI [%] [100 − (ΔVT/ΔVC × 100] (PANC 1; series 17, i.v., single 4 mg/kg, total 16 mg/kg, day 39): 60%
6 | Cc1ccc([N+](=O)[O-])c2c(NCCCN3CCN(CCCNc4ccc5ncn6c7ccc(O)cc7c(=O)c4c56)CC3)c3ccccc3nc12 [C-2025, 1-[3-(8-hydroxy-imidazo[4,5,1-de]-acridin-6-on-5-yl)aminopropyl]-4-[3′-(4′-methyl-1′-nitroacridin-1-yl)-aminopropyl]piperazine] | 0.244 µM | 0.038 µM | 0.017 µM | 0.067 µM | 0.343 µM | 0.068 µM | 0.051 µM | 0.042 µM | 0.354 µM | 0.035 µM | EC50 (HT-29): 0.237 µM; EC50 (PC-3): 0.13 µM; EC50 (H-460): 0.074 µM; TGI [%] [100 − (ΔVT/ΔVC × 100] (HCT 116; series 7, i.v., single 20 mg/kg, total 120 mg/kg, day 15): 4%; TGI [%] [100 − (ΔVT/ΔVC × 100] (PANC 1; series 20, i.v., single 20 mg/kg, total 160 mg/kg, day 26, *at least half of animals did not survive): 61* %; TGI [%] [100 − (ΔVT/ΔVC × 100] (MDA MB 231; series 19, i.v., single 5 mg/kg, total 40 mg/kg, day 39): 12%
7 | Cc1ccc([N+](=O)[O-])c2c(NCCCN(C)CCCNc3ccc4ncn5c6ccc(O)cc6c(=O)c3c45)c3ccccc3nc12 [C-2045, 9-{N-[(8-hydroxyimidazo[4,5,1-de]-acridin-6-on-5-yl)aminopropyl]-N-methylaminopropylamino}-4′-methyl-1′-nitroacridine] |  | 0.059 µM | 0.052 µM | 0.059 µM | 0.152 µM | 0.052 µM | 0.04 µM | 0.216 µM | 0.169 µM |  | TGI [%] [100 − (ΔVT/ΔVC × 100] (Mia Pa Ca 2): 55%; TGI [%] [100 − (ΔVT/ΔVC × 100] (BXPC 3; series 25, i.p., single 10 mg/kg, total 80 mg/kg, day 32): 77%; TGI [%] [100 − (ΔVT/ΔVC × 100] (PANC 1; series 20, i.v., single 10 mg/kg, total 40 mg/kg, day 32): 67%; TGI [%] [100 − (ΔVT/ΔVC × 100] (PANC 1; series 24, i.v., single 2 mg/kg, total 16 mg/kg, day 44): 82%; TGI [%] [100 − (ΔVT/ΔVC × 100] (PANC 1; series 26, i.v., single 10 mg/kg, total 80 mg/kg, day 56): 64%; TGI [%] [100 − (ΔVT/ΔVC × 100] (PANC 1; series 29, i.v., single 5 mg/kg, total 25 mg/kg, day 36): 25%
8 | Cc1ccc([N+](=O)[O-])c2c(NCCCN(C)CCCNc3ccc([N+](=O)[O-])c4[nH]c5ccccc5c(=O)c34)c3ccccc3nc12 [C-2029, 9-{N-[(4-nitro-9(10H)acridono-1-yl)aminopropyl]-N-methylaminopropylamino}-4′-methyl-1′-nitroacridine] |  |  |  | 0.044 µM |  |  | 0.074 µM | 0.11 µM |  | 0.054 µM | EC50 (HT-29): 0.23 µM; EC50 (H-460): 0.055 µM; TGI [%] [100 − (ΔVT/ΔVC × 100] (HCT 116; series 8, i.p., single 20 mg/kg, total 100 mg/kg, day 23): 52%
